Values joined by “and” are separate entries in the source; they are usually repeats but may differ in a detail not shown here. Equal entries are not always repeated.
Experiments:
Format in all cases: functional, Homo sapiens
Design in all cases: dose or concentration left out as unconfirmed
[1] = test system: Colon cancer organoid; assay: (§1) Image-based profiling of donated chemical probes and chemogenomic kinase set in O06 CRC organoid. Image analysis is performed on the sum area metric, and the data were normalized to the DMSO control. After imaging the organoid viability is measured using the OneGloEX Luciferase Assay System. The normalized viability data and sum area are reported.
[2] = test system: Colon cancer organoid; assay: as §1, with “O09” for “O06”
[3] = test system: Colon cancer organoid; assay: as §1, with “O21” for “O06”

| SMILES | Cell Viability ([1]; Replication number 1) | Cell Viability ([1]; Replication number 2) | Cell Viability ([2]; Replication number 1) | Cell Viability ([2]; Replication number 2) | Cell Viability ([3]; Replication number 1) | Cell Viability ([3]; Replication number 2) |
| --- | --- | --- | --- | --- | --- | --- |
| Cl.Cl.Cl.c1ccc(N2CCN(Cc3nc4ccccc4[nH]3)CC2)nc1 | 75.342% and 94.3794% | 106.955% and 116.079% | 118.127% and 116.353% | 87.0048% and 88.7915% | 123.058% and 103.622% | 81.1139% and 93.8775% |
| COc1ccc(Cn2ccc3ccc(C(=O)NO)cc32)cc1 | 150.267% and 98.5772% | 160.829% and 118.056% | 110.805% and 94.5904% | 117.665% and 84.3839% | 103% and 112.867% | 100.715% and 96.6587% |
| CCn1cc(-c2cccc(C(F)(F)F)c2)c2sc(C(=N)NC3CCS(=O)(=O)CC3)cc2c1=O | 179.562% and 135.302% | 139.17% and 96.3091% | 136.882% and 100.386% | 86.2111% and 86.0944% | 121.201% and 130.503% | 111.866% and 107.936% |
| CCCOc1ccn2c(C(C)=O)cc(-c3cccc(OC)c3)c2c1 | 185.69% and 133.611% | 217.677% and 137.175% | 257.79% and 103.4% | 158.474% and 115.458% | 114.752% and 106.401% | 123.226% and 102.029% |
| Cc1nc(N2CC[C@H](O)C2)ncc1-c1cc(C(F)(F)F)cc2[nH]ncc12 | 99.241% and 111.944% | 84.0147% and 88.1256% | 63.142% and 75.4977% | 55.6466% and 44.9799% | 102.375% and 86.1578% | 90.0065% and 80.6122% |
| CN1C[C@H](Nc2cnn(C)c(=O)c2Br)C[C@H](c2ccccc2)C1 | 155.67% and 115.973% | 127.596% and 115.428% | 140.201% and 85.3168% | 101.083% and 86.6646% | 130.754% and 116.395% | 102.417% and 96.6587% |
| CO[C@H]1CNC[C@@H](OCC2CCC(F)(F)CC2)[C@@H]1Nc1ncc(-c2cncc(C)c2)c2cc(C)c(=O)[nH]c12 | 159.604% and 115.973% | 145.077% and 98.9379% | 183.516% and 118.934% | 127.49% and 119.734% | 117.954% and 107.577% | 97.9494% and 89.6778% |
| Cl.O=C(O)c1cc(-c2ccc(C3CCNCC3)cc2)c2ccc(-c3ccc(C(F)(F)F)cc3)cc2c1 | 91.1935% and 100.081% | 81.9268% and 87.9385% | 82.2902% and 109.541% | 53.2933% and 84.4568% | 122.525% and 121.681% | 120.065% and 115.738% |
| C[C@@H](c1cccc(CN)c1)n1cc(Cl)cc(C(N)=O)c1=N.Cl | 106.874% and 116.842% | 95.2274% and 108.361% | 102.95% and 110.479% | 109.454% and 89.4132% | 113.852% and 117.315% | 85.2053% and 83.6166% |
| Cc1c(Nc2ccc(S(=O)(=O)N3CCN(C)CC3)cc2F)nc2ccc(Nc3cnn(C4CC4)c3)cn2c1=O | 183.611% and 128.295% | 165.181% and 157.488% | 89.3145% and 89.49% | 245.21% and 122.015% | 116.907% and 92.8805% | 82.2867% and 96.1217% |
| O=C(NCc1ccccc1)c1ccc(S(=O)(=O)NCc2ccccc2)cc1 | 187.548% and 135.666% | 115.38% and 119.884% | 92.4038% and 93.7908% | 103.22% and 86.1192% | 112.801% and 110.51% | 91.6281% and 94.6419% |
| Cc1c(Nc2ccc(S(=O)(=O)N3CCN(C)CC3)cc2F)nc2ccc(-c3cnn(C4CC4)c3)cn2c1=O | 155.776% and 116.215% | 128.897% and 94.1583% | 191.117% and 102.241% | 170.931% and 98.6379% | 111.388% and 118.746% | 91.8423% and 96.6587% |
| CCOC(=O)CCNc1cc(N2CCc3ccccc3CC2)nc(-c2cccnc2)n1 | 133.48% and 94.953% | 206.72% and 136.936% | 137.493% and 102.473% | 150.843% and 118.309% | 67.1414% and 86.4141% | 103.603% and 97.7327% |
| C[C@H]1CCCN1Cc1nc2cc(NC(=O)c3ccc4cnccc4c3)ccc2[nH]1 | 103.275% and 86.0134% | 127.654% and 99.8938% | 74.8227% and 68.6244% | 83.8481% and 67.5641% | 78.6097% and 94.644% | 77.6333% and 81.0859% |
| Cc1cc(C)cc([C@@H]2c3cc(C)ccc3NC(=O)CN2C(=O)c2ccc(Br)s2)c1 | 111.534% and 83.1141% | 141.021% and 89.6176% | 106.396% and 98.9954% | 263.199% and 111.182% | 115.521% and 108.165% | 94.8359% and 62.8282% |
| Cc1cc(C)cc([C@H]2c3cc(C)ccc3NC(=O)CN2C(=O)c2ccc(Br)s2)c1 | 159.149% and 112.832% | 176.911% and 106.346% | 143.943% and 101.546% | 157.398% and 102.629% | 126.442% and 119.334% | 102.791% and 105.788% |
| COCCN1CCC(c2cc(CN(C)C(=O)c3cccc(Oc4ccccc4)c3)ccn2)CC1 | 195.683% and 128.295% | 160.805% and 131.439% | 147.027% and 86.0124% | 179.06% and 107.19% | 116.465% and 111.692% | 91.1118% and 90.2148% |
| CC(=O)c1cc(-c2ccccc2OCC2CC2)c2ncccn12 | 193.281% and 129.503% | 159.696% and 98.6989% | 135.678% and 108.037% | 170.672% and 99.2081% | 119.426% and 104.637% | 103.612% and 93.9737% |
| Cc1cc(CN)cc(C)c1-c1ncn(C)c1-c1cncn1C | 108.725% and 89.8792% | 171.9% and 107.541% | 189.71% and 98.9954% | 198.722% and 106.905% | 118.759% and 94.0562% | 98.6287% and 80.0119% |
| CC(C)Oc1ccc(-c2c[nH]cc2CN(C)CCO)cc1 | 142.087% and 115.973% | 131.014% and 107.302% | 133.832% and 103.4% | 212.72% and 118.594% | 96.8467% and 122.861% | 101.748% and 92.8998% |
| CCNC(=O)c1cc2c(N3CCOCC3C)ccnc2[nH]1 (stereo unspecified) | 98.3654% and 112.881% | 119.727% and 97.8383% | 68.1497% and 105.84% | 64.0482% and 77.4005% | 130.503% and 111.772% | 91.1701% and 91.3265% |

Source: ChEMBL document CHEMBL5724558, “Image-based profiling of drug vulnerabilities in CRC organoids” (2024)
